Measurements reported in patent US20140206681A1, “BTK INHIBITORS” (priority 2013, published 2014).

How the values were obtained:
HeLa cells = assay: [3H]Adenosine uptake functional cellular assay; type: cell-based; conditions: Homo sapiens, HeLa, accumulation of [3H]adenosine into HeLa cells; compound range 10 μM to […]; read-out: Adenosine uptake inhibition IC50
Summary of the method: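 Inhibition of adenosine uptake was measured in HeLa cells (ATCC CCL-2) by following accumulation of tritiated adenosine. Cells were kept overnight at 37° C. with 5% (v/v) CO2, then switched to 40 μL HBSS plus 5% (v/v) FBS. 20 μL of 500 nM [3H]adenosine was added, and uptake was counted on a Topcount NXT reader.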

[1] = molecular target: T1, BTK enzyme (recombinant full-length BTK, hBTK) (Homo sapiens, UniProt Q06187); assay: BTK enzyme activity assay, LANCE TR-FRET; type: biochemical; conditions: 50 pM hBTK, 2 μM biotin-A5-peptide, 25 μM ATP; 60 min compound & enzyme incubation; read-out: IC50 BTK activity value
T1 construct: recombinant protein from baculovirus-transfected Sf9 cells: full-length BTK, 6HIS-tag cleaved; 6HIS (cleaved yes); made in house; host or cells: baculovirus-transfected Sf9 cells
T1 sequence (Q06187 whole entry): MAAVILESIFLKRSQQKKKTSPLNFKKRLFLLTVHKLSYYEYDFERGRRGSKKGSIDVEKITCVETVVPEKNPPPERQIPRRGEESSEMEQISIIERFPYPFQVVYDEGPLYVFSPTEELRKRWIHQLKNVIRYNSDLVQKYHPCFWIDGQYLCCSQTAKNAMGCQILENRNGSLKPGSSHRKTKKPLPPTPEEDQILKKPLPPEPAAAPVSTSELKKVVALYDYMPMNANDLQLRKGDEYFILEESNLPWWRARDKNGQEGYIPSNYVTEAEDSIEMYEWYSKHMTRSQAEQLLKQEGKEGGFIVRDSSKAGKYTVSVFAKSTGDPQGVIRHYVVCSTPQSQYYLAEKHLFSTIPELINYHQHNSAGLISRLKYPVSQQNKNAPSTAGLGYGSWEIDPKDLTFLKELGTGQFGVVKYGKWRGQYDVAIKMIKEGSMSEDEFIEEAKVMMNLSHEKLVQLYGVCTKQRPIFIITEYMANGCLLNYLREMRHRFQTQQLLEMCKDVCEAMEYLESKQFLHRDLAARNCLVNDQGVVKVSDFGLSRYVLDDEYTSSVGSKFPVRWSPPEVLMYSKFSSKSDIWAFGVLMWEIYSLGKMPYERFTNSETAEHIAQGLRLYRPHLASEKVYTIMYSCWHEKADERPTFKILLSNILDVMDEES

Question: For `Nc1nccn2c([C@H]3CC[C@@H]4CCOC(=O)N4C3)nc(-c3ccc(C(=O)Nc4cc(C(F)(F)F)ccn4)cc3)c12` [Example 93, 4-{8-amino-3-[(4aR,7S)-1-oxohexahydro-3H-pyrido[1,2-c][1,3]oxazin-7-yl]imidazo[1,5-a]pyrazin-1-yl}-N-[4-(trifluoromethyl)pyridin-2-yl]benzamide], which IC50 (HeLa cells) is on record?
Answer: 158 nM

Question: And the IC50 [1]?
Answer: 2.6 nM

Question: Which results are given for `CC1(C)C[C@H]2CC[C@H](c3nc(-c4ccc(C(=O)Nc5cc(C(F)(F)F)ccn5)cc4)c4c(N)nccn34)CN2C1=O` [Example 94, 4-{8-amino-3-[(6S,8aR)-2,2-dimethyl-3-oxooctahydroindolizin-6-yl]imidazo[1,5-a]pyrazin-1-yl}-N-[4-(trifluoromethyl)pyridin-2-yl]benzamide]?
Answer: IC50 (HeLa cells): 63.2 nM; IC50 [1]: 0.14 nM

Question: For `C[C@@H]1OC(=N)N2C[C@H](c3nc(-c4ccc(C(=O)Nc5cc(C(F)(F)F)ccn5)cc4)c4c(N)nccn34)CC[C@@H]12` [Example 96, 4-{8-amino-3-[(1S,6R,8aS)-3-imino-1-methylhexahydro[1,3]oxazolo[3,4-a]pyridin-6-yl]imidazo[1,5-a]pyrazin-1-yl}-N-[4-(trifluoromethyl)pyridin-2-yl]benzamide], which IC50 (HeLa cells) is on record?
Answer: 1140 nM

Question: What about the IC50 [1] of the same compound?
Answer: 1.3 nM

Question: What does the source list for `CC(O)c1ccnc(NC(=O)c2ccc(-c3nc([C@@H]4CC[C@H]5CCC(=O)N5C4)n4ccnc(N)c34)cc2)c1` (stereo partly drawn) [Example 97, 4-{8-amino-3-[(6R,8aS)-3-oxooctahydroindolizin-6-yl]imidazo[1,5-a]pyrazin-1-yl}-N-[4-(1-hydroxyethyl)pyridin-2-yl]benzamide]?
Answer: IC50 (HeLa cells): 5380 nM; IC50 [1]: 9.7 nM

Question: For `CC(C)(O)c1ccnc(NC(=O)c2ccc(-c3nc([C@@H]4CC[C@H]5CCC(=O)N5C4)n4ccnc(N)c34)cc2)c1` [Example 98, 4-{8-amino-3-[(6R,8aS)-3-oxooctahydroindolizin-6-yl]imidazo[1,5-a]pyrazin-1-yl}-N-[4-(1-hydroxy-1-methylethyl)pyridin-2-yl]benzamide], which IC50 (HeLa cells) is on record?
Answer: 6320 nM

Question: And the IC50 [1]?
Answer: 49.3 nM

Question: `COC(C)c1ccnc(NC(=O)c2ccc(-c3nc([C@@H]4CC[C@H]5CCC(=O)N5C4)n4ccnc(N)c34)cc2)c1` (stereo partly drawn) [Example 99, 4-{8-amino-3-[(6R,8aS)-3-oxooctahydroindolizin-6-yl]imidazo[1,5-a]pyrazin-1-yl}-N-[4-(1-methoxyethyl)pyridin-2-yl]benzamide] was tested. Which IC50 (HeLa cells) did it give?
Answer: 184 nM

Question: And the IC50 [1]?
Answer: 1.5 nM

Question: `COc1cc(C(=O)Nc2cc(C(F)(F)F)ccn2)ccc1-c1nc([C@@H]2CC[C@H]3CC(C)(C)C(=O)N3C2)n2ccnc(N)c12` [Example 100, 4-{8-amino-3-[(6R,8aS)-2,2-dimethyl-3-oxooctahydroindolizin-6-yl]imidazo[1,5-a]pyrazin-1-yl}-3-methoxy-N-[4-(trifluoromethyl)pyridin-2-yl]benzamide] was tested. Which IC50 (HeLa cells) did it give?
Answer: 463 nM

Question: And the IC50 [1]?
Answer: 0.51 nM

Question: Which results are given for `COc1cc(C(=O)Nc2cc(C(F)(F)F)ccn2)ccc1-c1nc([C@H]2CC[C@@H]3CC(C)(C)C(=O)N3C2)n2ccnc(N)c12` [Example 101, 4-{8-amino-3-[(6S,8aR)-2,2-dimethyl-3-oxooctahydroindolizin-6-yl]imidazo[1,5-a]pyrazin-1-yl}-3-methoxy-N-[4-(trifluoromethyl)pyridin-2-yl]benzamide]?
Answer: IC50 (HeLa cells): 487 nM; IC50 [1]: 45.4 nM

Question: `Nc1nccn2c([C@@H]3CC[C@H]4CN(C(=O)c5ccncc5)CC(=O)N4C3)nc(-c3ccc(C(=O)Nc4cc(C(F)(F)F)ccn4)cc3)c12` [Example 102, 4-{8-amino-3-[(7R,9aS)-4-oxo-2-(pyridin-4-ylcarbonyl)octahydro-2H-pyrido[1,2-a]pyrazin-7-yl]imidazo[1,5-a]pyrazin-1-yl}-N-[4-(trifluoromethyl)pyridin-2-yl]benzamide] was tested. Which IC50 (HeLa cells) did it give?
Answer: 471 nM

Question: What about the IC50 [1] of the same compound?
Answer: 0.21 nM

Question: For `COC(=O)c1ccnc(NC(=O)c2ccc(-c3nc([C@@H]4CC[C@H]5CCC(=O)N5C4)n4ccnc(N)c34)cc2)c1` [Example 103, methyl 2-{[(4-{8-amino-3-[(6R,8aS)-3-oxooctahydroindolizin-6-yl]imidazo[1,5-a]pyrazin-1-yl}phenyl)carbonyl]amino}pyridine-4-carboxylate], which IC50 (HeLa cells) is on record?
Answer: 69.3 nM

Question: What about the IC50 [1] of the same compound?
Answer: 0.4 nM

Question: What does the source list for `Nc1nccn2c([C@@H]3CC[C@H]4CCC(=O)N4C3)nc(-c3ccc(C(=O)Nc4cc(C(F)(F)F)cnn4)cc3)c12` [Example 104, 4-{8-amino-3-[(6R,8aS)-3-oxooctahydroindolizin-6-yl]imidazo[1,5-a]pyrazin-1-yl}-N-[5-(trifluoromethyl)pyridazin-3-yl]benzamide]?
Answer: IC50 (HeLa cells): 303 nM; IC50 [1]: 1.2 nM

Question: Which IC50 (HeLa cells) does the source give for `Nc1nccn2c([C@@H]3CC[C@H]4CCC(=O)N4C3)nc(-c3ccc(C(=O)Nc4cc5ccccc5cn4)cc3)c12` [Example 106, 4-{8-amino-3-[(6R,8aS)-3-oxooctahydroindolizin-6-yl]imidazo[1,5-a]pyrazin-1-yl}-N-isoquinolin-3-ylbenzamide] here?
Answer: 193 nM

Question: What about the IC50 [1] of the same compound?
Answer: 0.19 nM

Question: With `Nc1nccn2c([C@H]3CN4C(=O)CC[C@@H]4CO3)nc(-c3ccc(C(=O)Nc4cc(C(F)(F)F)ccn4)cc3)c12` [Example 107, 4-{8-amino-3-[(3R,8aR)-6-oxohexahydro-1H-pyrrolo[2,1-c][1,4]oxazin-3-yl]imidazo[1,5-a]pyrazin-1-yl}-N-[4-(trifluoromethyl)pyridin-2-yl]benzamide] as the compound, how does the IC50 (HeLa cells) read?
Answer: 206 nM

Question: What about the IC50 [1] of the same compound?
Answer: 0.26 nM

Question: What does the source list for `Nc1nccn2c([C@@H]3CC[C@H]4CN(CC(=O)O)CC(=O)N4C3)nc(-c3ccc(C(=O)Nc4cc(C(F)(F)F)ccn4)cc3)c12` [Example 108, {(7R,9aS)-7-[8-amino-1-(4-{[4-(trifluoromethyl)pyridin-2-yl]carbamoyl}phenyl)imidazo[1,5-a]pyrazin-3-yl]-4-oxooctahydro-2H-pyrido[1,2-a]pyrazin-2-yl}acetic acid]?
Answer: IC50 (HeLa cells): 2880 nM; IC50 [1]: 0.22 nM

Question: Which results are given for `C=C[C@@H]1OC(=O)N2C[C@H](c3nc(-c4ccc(C(=O)Nc5cc(C(F)(F)F)ccn5)cc4)c4c(N)nccn34)CC[C@@H]12` [Example 109, 4-{8-amino-3-[(1S,6R,8aS)-1-ethenyl-3-oxohexahydro[1,3]oxazolo[3,4-a]pyridin-6-yl]imidazo[1,5-a]pyrazin-1-yl}-N-[4-(trifluoromethyl)pyridin-2-yl]benzamide]?
Answer: IC50 (HeLa cells): 116 nM; IC50 [1]: 6.3 nM

Question: What does the source list for `C=C[C@H]1OC(=O)N2C[C@H](c3nc(-c4ccc(C(=O)Nc5cc(C(F)(F)F)ccn5)cc4)c4c(N)nccn34)CC[C@@H]12` [Example 110, 4-{8-amino-3-[(1R,6R,8aS)-1-ethenyl-3-oxohexahydro[1,3]oxazolo[3,4-a]pyridin-6-yl]imidazo[1,5-a]pyrazin-1-yl}-N-[4-(trifluoromethyl)pyridin-2-yl]benzamide]?
Answer: IC50 (HeLa cells): 100 nM; IC50 [1]: 16.8 nM

Question: Which IC50 (HeLa cells) does the source give for `CN1CC[C@H]2CC[C@@H](c3nc(-c4ccc(C(=O)Nc5cc(C(F)(F)F)ccn5)cc4)c4c(N)nccn34)CN2C1=O` [Example 111, 4-{8-amino-3-[(4aR,7R)-2-methyl-1-oxooctahydro-1H-pyrido[1,2-c]pyrimidin-7-yl]imidazo[1,5-a]pyrazin-1-yl}-N-[4-(trifluoromethyl)pyridin-2-yl]benzamide] here?
Answer: 458 nM

Question: What about the IC50 [1] of the same compound?
Answer: 5.2 nM

Question: With `Nc1nccn2c([C@@H]3CC[C@H]4CCC(=O)N4C3)nc(-c3ccc(C(=O)Nc4cc(C(F)(F)F)ccn4)cc3Cl)c12` [Example 112, 4-{8-amino-3-[(6R,8aS)-3-oxooctahydroindolizin-6-yl]imidazo[1,5-a]pyrazin-1-yl}-3-chloro-N-[4-(trifluoromethyl)pyridin-2-yl]benzamide] as the compound, how does the IC50 (HeLa cells) read?
Answer: 415 nM

Question: What about the IC50 [1] of the same compound?
Answer: 0.57 nM

Question: With `CC(F)(F)c1cc(C(=O)Nc2cc(C(F)(F)F)ccn2)ccc1-c1nc([C@@H]2CC[C@H]3CCC(=O)N3C2)n2ccnc(N)c12` [Example 114, 4-{8-amino-3-[(6R,8aS)-3-oxooctahydroindolizin-6-yl]imidazo[1,5-a]pyrazin-1-yl}-3-(1,1-difluoroethyl)-N-[4-(trifluoromethyl)pyridin-2-yl]benzamide] as the compound, how does the IC50 (HeLa cells) read?
Answer: 587 nM

Question: What about the IC50 [1] of the same compound?
Answer: 831 nM

Question: `CCOc1cc(C(=O)Nc2cc(C(F)(F)F)n(C)n2)c(F)cc1-c1nc([C@@H]2CC[C@H]3CCC(=O)N3C2)n2c(Cl)cnc(N)c12` [Example 115, 4-(8-amino-5-chloro-3-((6R,8aS)-3-oxooctahydroindolizin-6-yl)imidazo[1,5-a]pyrazin-1-yl)-5-ethoxy-2-fluoro-N-(1-methyl-5-(trifluoromethyl)-1H-pyrazol-3-yl)benzamide] was tested. Which IC50 (HeLa cells) did it give?
Answer: 1690 nM

Question: What about the IC50 [1] of the same compound?
Answer: 0.67 nM

Question: With `N#Cc1cnc(NC(=O)c2ccc(-c3nc([C@@H]4CC[C@H]5CCC(=O)N5C4)n4ccnc(N)c34)cc2)cc1C(F)(F)F` [Example 117, 4-{8-amino-3-[(6R,8aS)-3-oxooctahydroindolizin-6-yl]imidazo[1,5-a]pyrazin-1-yl}-N-[5-cyano-4-(trifluoromethyl)pyridin-2-yl]benzamide] as the compound, how does the IC50 (HeLa cells) read?
Answer: 102 nM

Question: And the IC50 [1]?
Answer: 2.1 nM

Question: How did the IC50 (HeLa cells) turn out when `Nc1nccn2c([C@@H]3CC[C@H]4CCC(=O)N4C3)nc(-c3ccc(C(=O)Nc4cc(C(F)(F)F)ccn4)cc3O)c12` [Example 118, 4-{8-amino-3-[(6R,8aS)-3-oxooctahydroindolizin-6-yl]imidazo[1,5-a]pyrazin-1-yl}-3-hydroxy-N-[4-(trifluoromethyl)pyridin-2-yl]benzamide] was run?
Answer: 832 nM

Question: What about the IC50 [1] of the same compound?
Answer: 0.58 nM

Question: For `Nc1nccn2c([C@@H]3CC[C@H]4CCC(=O)N4C3)nc(-c3ccc(C(=O)Nc4cc(C(F)(F)F)ccn4)nc3)c12` [Example 119, 5-{8-amino-3-[(6R,8aS)-3-oxooctahydroindolizin-6-yl]imidazo[1,5-a]pyrazin-1-yl}-N-[4-(trifluoromethyl)pyridin-2-yl]pyridine-2-carboxamide], which IC50 (HeLa cells) is on record?
Answer: 451 nM

Question: And the IC50 [1]?
Answer: 3.3 nM
